Data set [1] has as its system H9c2. Kind of data set: Cytoprotective activity against H2O2-induced oxidative damage in rat H9c2 cells assessed as reduction in cell viability at 100 uM incubated for 24 hrs followed by low concentration of H2O2 treatment and measured after 24 hrs by MTT assay relative to control. In kind it is functional. The settings on record: time 48 hrs.
In data set [2] the test system is H9c2. As to the kind of experiment: Downregulation of H2O2 induced ANP level in rat H9c2 cells measured after 1.5 hrs by qRT-PCR analysis. In kind it is functional, cell-based. The settings on record: dose <= 80.0 µM.
The subject of data set [3] is H9c2. As to the kind of experiment: Cytoprotective activity against H2O2-induced oxidative damage in rat H9c2 cells assessed as cell viability preincubated for 24 hrs followed by H2O2 treatment for another 1.5 hrs by MTT assay. Particulars: dose 0-80 µM, time 25.5 hrs. In kind it is functional, cell-based. For orientation: Tetrazolium dyes change colour on reduction, which living cells bring about.

For data set [4], the system named is H9c2. As to the kind of experiment: Anti-apoptotic activity in H202 induced rat H9c2 cells assessed as increase in caspase 3 level at 20 to 80 uM measured after 1.5 hrs by Western blot analysis. In kind it is functional, cell-based. The settings on record: dose 20-80 µM. In general terms: Immunoblotting shows a protein as a band on a membrane.
The subject of data set [5] is H9c2. As to the kind of experiment: Protection against H2O2-induced cell damage in rat H9c2 cells assessed as recovery of cell death at 100 uM. In kind it is functional, cell-based.
In data set [6] the test system is H9c2. As to the kind of experiment: Downregulation of H2O2 induced BNP level in rat H9c2 cells measured after 1.5 hrs by qRT-PCR analysis. In kind it is functional, cell-based. Particulars: dose <= 80.0 µM.
Data set [7] has as its system H9c2. Kind of data set: Cytoprotective activity against H2O2-induced oxidative damage in rat H9c2 cells assessed as fold reduction in cell viability at 20 uM preincubated for 24 hrs followed by H2O2 treatment for another 1.5 hrs by MTT assay. In kind it is functional. The settings on record: time 25.5 hrs.
In data set [8] the test system is H9c2. As to the kind of experiment: Anti-apoptotic activity in H202 induced rat H9c2 cells assessed as decrease in Bcl2 level at 20 to 80 uM measured after 1.5 hrs by Western blot analysis. In kind it is functional, cell-based. Particulars: dose 20-80 µM.
Data set [9] deals with H9c2. As to the kind of experiment: Cytotoxicity against rat H9c2 cells at 10 to 100 uM measured after 48 to 72 hrs by MTT assay. In kind it is toxicity, cell-based. The settings on record: h9c2, 100 µM, dose lower 10 µM, time lower 48 hrs, dose upper 100 µM, time upper 72 hrs.
Data set [10] deals with H9c2. As to the kind of experiment: Antioxidant activity in H2O2-induced oxidative stress in rat H9c2 cells assessed as increase in expression of Nrf2 level at upto 80 uM measured after 1.5 hrs by Western blotting analysis. In kind it is functional, cell-based.
Data set [11] has as its system H9c2. Kind of data set: Anti-apoptotic activity in H202 induced rat H9c2 cells assessed as increase in Bax level at 20 to 80 uM measured after 1.5 hrs by Western blot analysis. In kind it is functional, cell-based. Particulars: dose 20-80 µM.
Data set [12] has as its system H9c2. Kind of data set: Cytoprotective activity against H2O2-induced oxidative damage in rat H9c2 cells assessed as cell viability at 20 uM preincubated for 24 hrs followed by H2O2 treatment for another 1.5 hrs by MTT assay (reference value: 32.52 to 44.40%). In kind it is functional. The settings on record: time 25.5 hrs, read-out: Activity.
In data set [13] the test system is H9c2. As to the kind of experiment: Anti-apoptotic activity in H202 induced rat H9c2 cells assessed as increase in caspase 9 level at 20 to 80 uM measured after 1.5 hrs by Western blot analysis. In kind it is functional, cell-based. Particulars: dose 20-80 µM.
For data set [14], the system named is H9c2. Kind of data set: Protection against H2O2-induced cell damage in rat H9c2 cells assessed as recovery of cell shrinkage at 100 uM. In kind it is functional, cell-based.
Data set [15] concerns H9c2. Kind of data set: Antioxidant activity in H2O2-induced oxidative stress in rat H9c2 cells assessed as increase in expression of NQO1 level at upto 80 uM measured after 1.5 hrs by Western blotting analysis. In kind it is functional, cell-based.

Activity calls are given as the source filed them. No cut-off for these calls is given here.

The results in this text go back to ChEMBL document CHEMBL5338705, “Discovery of 1,3,4-oxadiazole derivatives containing a bisamide moiety as a novel class of potential cardioprotective agents” (Eur J Med Chem, 2022).

For `COc1ccc(NC(=O)NC(=O)CSc2nnc(-c3ccccc3)o2)cc1`, the Activity was 48% with H9c2 [1]; “Dose-Dependent Effect” with H9c2 [2]; “Dose-Dependent Effect” in the data set on H9c2 [3]; “Dose-Dependent Effect” in the data set with H9c2 [6]; “Non-Toxic” with H9c2 [9]. In addition, the result with H9c2 [4], in the data set on H9c2 [5], with H9c2 [8], with H9c2 [10], in the data set with H9c2 [11] and in the data set on H9c2 [13] was Active. The outcome in the data set with H9c2 [14] and with H9c2 [15] was Active. The “fold change (FC)” value in the data set on H9c2 [7] came out at 2.69. In addition, the viability at 20 µM in the data set on H9c2 [12] was found to be 88.4%.
